Experimental data: patent US10471028B2, “Small molecule efflux pump inhibitors” (UNIVERSITY OF ROCHESTER, priority 2014, dated 2019)
Read-outs that look alike come from different tables or passages of the source.

Assays:
[1] = system: A. baumannii; assay: Antibiotic susceptibility assay in LB medium or 100% human serum; format: cell-based, Acinetobacter baumannii
Description: The antibiotic susceptibility of A. baumannii and Pseudomonas aeruginosa grown in either LB medium or 100% human serum was measured according to the method described below. Briefly, the indicated bacterial species/strain was grown overnight in LB medium, diluted into fresh medium (1:100 dilution) and grown to mid-exponential phase (OD600nm=0.4 to 0.5) at 37° C. with aeration. […] To quantify the antimicrobial effects of each antibiotic toward bacteria grown in LB or serum, well constitutes were serially diluted in PBS and plated on LB agar to enumerate the CFU mL^−1.

[2] = system: A. baumannii strain 98-37-09; assay: MEC determination: potentiation of minocycline toward serum grown A. baumannii; format: cell-based, Acinetobacter baumannii; details: for Log-reduction Colony Forming Units (ml^−1): 1×MEC of compound plus minocycline in serum, versus minocycline alone, plating; for MEC: lowest concentration inhibiting growth in 100% human serum with 0.5 μg ml^−1 minocycline, 48 hr
Description: The TimTec ActiProbe-25K diversity-set and Natural Product compound libraries (29,900 compounds total; TimTec, Newark, Del.) were initially screened for putative efflux pump inhibitors by identifying compounds that potentiated the antimicrobial property of a sub-inhibitory concentration of minocycline toward A. baumannii grown in human serum. To do so, A. baumannii strain 98-37-09 was grown for 16 hours in LB medium at 37° C. on a rotary shaker at 225 rpm. Approximately 1×10^5 CFU were then transferred to individual wells of a 96-well round-bottom plate (Corning Costar, Tewksbury, Mass.) containing 100 μL of human serum supplemented with of minocycline (0.5 μg mL^−1; 0.5× minimum inhibitory concentration in serum) and individual members of the Timtec ActiProbe or Natural product library (50 μM). Plates were then incubated at 37° C. for 48 hours. Growth was measured as a function of turbidity. Putative efflux pump inhibitors were identified as compounds that inhibited A. baumannii growth in human serum containing minocycline and were subsequently retested in triplicate, as indicated above. Untreated A. baumannii grown in serum supplemented with minocycline+/−PAβN served as positive and negative controls, respectively. […] Repeat testing in which well constituents were serial diluted and plated on LB agar plates validated that 85 compounds did indeed limit A. baumannii growth in serum supplemented with minocycline, reducing the number of viable colony forming units between 2-6 log cfu in comparison to minocycline alone treated cells.
The MEC was defined as the lowest concentration of test compound required to inhibit the growth of A. baumannii in serum in the presence of 0.5 μg ml^−1 minocycline. Plating confirmed that addition of 1×MEC of each compound elicited ≥1.9-log reduction in A. baumannii cells grown in serum supplemented with minocycline alone (see Table 1).

[3] = system: A. baumannii strain 98-37-09; assay: Cellular accumulation of minocycline (HPLC, triple-quadrupole MS); format: cell-based, Acinetobacter baumannii; details: human serum with 0.5 μg mL^−1 minocycline plus test compound (0.5×MEC, 1×MEC), 48 hours
Description: High pressure liquid chromatography and triple-quadrupole mass spectrometry were used to measure the A. baumannii intracellular levels of minocycline during growth in human serum in the absence and presence of each putative efflux pump inhibitor. […] Cultures were incubated for 48 hours with shaking, at which point an aliquot was removed, serially diluted, and plated to determine the number of viable CFU per mixture. The remainder of the cells were pelleted by centrifugation at 900×g at 4° C., washed twice in PBS, mechanically lysed with a FastPrep cell disrupter (MP Biomedicals, Santa Ana, Calif.) for 20 seconds at 5 m s^−1 and the cellular debris was pelleted via centrifugation at 900×g and 4° C. The amount of minocycline present within the supernatant of ruptured cells was measured. Briefly, doxycycline (0.5 μg mL^−1) was first added to each supernatant to serve as an internal control to account for sample-to-sample preparation variability. The supernatant was then combined with acetonitrile (ACN) at a 1:10 ratio and centrifuged at 16,000×g, at 4° C., to collect minocycline and doxycycline. […] residual liquid was evaporated in a speed vacuum for 2 hours at 8,000×g. To quantify the amount of antibiotics retained, sample materials were suspended in 50% acetonitrile, filtered through a 0.2 μm low protein binding hydrophilic membrane (Millipore, Billerica, Mass.) then separated on Shimadzu high performance liquid chromatography instrument (Fisher Scientific) using a BetaBasic C18 reverse phase column (Thermo Scientific). Separation was carried out with two mobile phase solutions consisting of solution (A) water with 0.1% formic acid and solution (B) 100% ACN. The gradient profile of the chromatography runs was as follows: from 0 to 0.1 min 8% solution B, ramp step wise (37% to 60% solution B) from 0.1 to 6.5 min then holding for one minute before ramping down from 60% to 10% from 7.5 to 8 min. This was followed a hold at 10% solution B for one minute. […] The column was equilibrated in 8% solution B at 40° C. and the flow rate was set to 0.2 mL min^−1. Mass spectrometry analysis of fractions was carried out using a Thermo TSQ Quantum Ultra triple quadrupole mass spectrometer (Fisher Scientific). Data were analyzed using Xcalibur software (Thermo Scientific); the following parameters were used to detect minocycline and the internal control doxycycline: 458.208 m/z→282.971 m/z (collision energy=43, tube lens=119) for minocycline and 445.144 m/z→266.900 m/z (collision energy=39, tube lens=127) for doxycycline. Analysis of the raw data was conducted by using the area under the curve calculations with the Genesis algorithm to determine the concentration in each sample. The difference between the peak intensity and the y intercept of pre-established minocycline and doxycycline standard curves was divided by the slope of the standard curve to quantify the amount of minocycline within each sample. The total concentration of minocycline within each cell was calculated by normalizing to the number of cells within each corresponding culture.

[4] = system: human HepG2 cells; assay: MTT cell viability (cytotoxicity) assay
Description: To distinguish putatively non-toxic from human cytotoxic compounds, conventional 3-(4,5-dimethylthiazol-2yl)-2,5-diphenyltetrazolium bromide (MTT) cell viability assays (American Type Culture Collection, Manassas, Va.) were performed for each compound of interest at 1× and 4× their MEC. Briefly, human HepG2 cells were grown to approximately 1×10^6 cells per well in Dulbecco's Modified Eagle Media supplemented with 10% fetal bovine serum (Invitrogen, Carlsbad, Calif.) then treated with 1× or 4× the MEC of the indicated […] Cell viability was measured following the addition of the tetrazolium salt (MTT) as per the manufacturer's recommendations; cells challenged with 50 ug ml^−1 Mitomycin C (Sigma Aldrich) and mock-treated cells served as positive and negative controls, respectively.

[5] = system: A. baumannii strain 98-37-09; assay: Potentiation of ciprofloxacin toward serum grown A. baumannii; format: cell-based, Acinetobacter baumannii; details: 100% human serum, 0.125 μg ml^−1 ciprofloxacin, 1× or 2× MEC, 48 hour, growth inhibition
Text: As a means to further prioritize non-toxic compounds of interest based on their therapeutic promise, it was considered that broad spectrum antimicrobial efflux pump inhibitors may be more clinically valuable than narrow-spectrum agents that only potentiate the activity of a limited number of antibiotics or that display activity toward a single bacterial species. […] To do so, 1×10^5 A. baumannii strain 98-37-09 were inoculated into individual wells of microtiter plates containing 100% human serum supplemented with 0.125 μg ml^−1 ciprofloxacin and 0, 1×, or 2× the compound's MEC, as defined by the lowest concentration needed to potentiated minocycline's antimicrobial effects (above). Plates were incubated for 48 hour at which point each compound's ability to potentiate ciprofloxacin was measured, as growth inhibition.

With `O=C(O)c1cn(C2CC2)c2cc(N3CCNCC3)c(F)cc2c1=O` [ciprofloxacin] the “susceptibility of serum grown versus LB grown cells” value ([1]; strain 98-37-09, ciprofloxacin ≤1 μg ml^−1) was “significantly (P<0.001) less susceptible”.
With `COC(=O)[C@H]1[C@H]2C[C@@H]3c4[nH]c5cc(OC)ccc5c4CCN3C[C@H]2C[C@@H](OC(=O)c2cc(OC)c(OC)c(OC)c2)[C@@H]1OC` [reserpine] the “restoration of tigecycline susceptibility in serum” value ([1]; strain 01-12-05, addition of efflux pump inhibitor) was “partially restored” and the “restoration of ciprofloxacin susceptibility in serum” value ([1]; strain 98-37-09, serum supplemented with efflux pump inhibitor) was “Ciprofloxacin susceptibility could be restored”.
In the case of `COC(=O)c1ccc(COc2ccc(-c3nnn[nH]3)cc2)cc1` [ST060272], the “Log-reduction Colony Forming Units (ml^−1)” value [2] is reported as 6.90 log, the MEC [2] is reported as 32 µg/mL and the “Minocylcine Per Cell (femtomoles cell^−1)” value (“Minocylcine Per Cell” for short) [3] is reported as 3.67E−07 femtomoles cell^−1. For the same compound, the “% Viability” value [4] was 85.35% and the “Potentiate Ciprofloxacin A. baumannii” value [5] was “No”.
For `COC(=O)CCC(=O)Nc1ccc(S(N)(=O)=O)cc1` [ST040289], the “Log-reduction Colony Forming Units (ml^−1)” value [2] was 4.32 log, the MEC [2] was 4 µg/mL and the “Minocylcine Per Cell” value [3] was 8.38E−04 femtomoles cell^−1. For the same compound, the “% Viability” value [4] was 78.8% and the “Potentiate Ciprofloxacin A. baumannii” value [5] was “No”.
With `CN(C)c1cc(NC(=O)CNC(C)(C)C)c(O)c2c1C[C@H]1C[C@H]3[C@H](N(C)C)C(O)=C(C(N)=O)C(=O)[C@@]3(O)C(O)=C1C2=O` [tigecycline] the “concentration with clear antimicrobial activity” value ([1]; strain 01-12-05, LB medium) was at least 1 µg/mL and the “susceptibility during growth in serum” value ([1]; strain 01-12-05, human serum) was “highly-resistant”.
`O=C1c2ccccc2C(=O)N1CCN1CCNCC1` [ST059581] was tested, and the “Log-reduction Colony Forming Units (ml^−1)” value [2] was 6.12 log, the MEC [2] was 32 µg/mL and the “Minocylcine Per Cell” value [3] was 5.64E−05 femtomoles cell^−1. For the same compound, the “% Viability” value [4] was 84.56% and the “Potentiate Ciprofloxacin A. baumannii” value [5] was “No”.
`O=C(N/N=C/c1ccc2c(c1)OCO2)c1ccccc1O` [ST033341] was tested, and the “Log-reduction Colony Forming Units (ml^−1)” value [2] was 2.42 log, the MEC [2] was 2 µg/mL and the “Minocylcine Per Cell” value [3] was 3.39E−05 femtomoles cell^−1. The “% Viability” value [4] was 75.88% and the “Potentiate Ciprofloxacin A. baumannii” value [5] was “No”.
For `Cc1cccc(N(CC(=O)Nc2ccc(Cc3ccncc3)cc2)S(=O)(=O)c2ccccc2)c1` [ST034014], the “Log-reduction Colony Forming Units (ml^−1)” value [2] was 2.37 log, the MEC [2] was 2 µg/mL and the “Minocylcine Per Cell” value [3] was 5.46E−04 femtomoles cell^−1. The “% Viability” value [4] was 84.27% and the “Potentiate Ciprofloxacin A. baumannii” value [5] was “No”.
With `CCOC(=O)/C=C/C(=O)Nc1ccc(S(N)(=O)=O)cc1` [ST026465] the “Log-reduction Colony Forming Units (ml^−1)” value [2] was 6.36 log, the MEC [2] was 32 µg/mL and the “Minocylcine Per Cell” value [3] was 3.82E−04 femtomoles cell^−1. For the same compound, the “% Viability” value ([4]; human, 48 h, 4 ×MEC) was 100% and the “Potentiate Ciprofloxacin A. baumannii” value [5] was “No”.
For `Cc1cc2c(c(=O)o1)C(c1ccc(F)cc1)C(C#N)=C(N)O2` (stereo not drawn) [ST007013], the “Log-reduction Colony Forming Units (ml^−1)” value [2] was 1.95 log, the MEC [2] was 4 µg/mL and the “Minocylcine Per Cell” value [3] was 5E−04 femtomoles cell^−1. For the same compound, the “% Viability” value [4] was 80.9% and the “Potentiate Ciprofloxacin A. baumannii” value [5] was “No”.
For `Nc1ccc(S(=O)(=O)Nc2ncccn2)cc1` [ST059447], the “Log-reduction Colony Forming Units (ml^−1)” value [2] was 5.74 log, the MEC [2] was 4 µg/mL and the “Minocylcine Per Cell” value [3] was 4.52E−05 femtomoles cell^−1. For the same compound, the “% Viability” value [4] was 76.78% and the “Potentiate Ciprofloxacin A. baumannii” value [5] was “No”.
In the case of `Cc1ccc(C=Nc2cc([N+](=O)[O-])ccc2O)cc1` [ST010277], the “Log-reduction Colony Forming Units (ml^−1)” value [2] is reported as 7.33 log, the MEC [2] is reported as 32 µg/mL and the “Minocylcine Per Cell” value [3] is reported as 1.15E−05 femtomoles cell^−1. For the same compound, the “% Viability” value [4] was 82.4% and the “Potentiate Ciprofloxacin A. baumannii” value [5] was “No”.
In the case of `COc1ccc(C2N(Cc3ccccc3)CCN2Cc2ccccc2)cc1` [ST036291], the “Log-reduction Colony Forming Units (ml^−1)” value [2] is reported as 3.31 log, the MEC [2] is reported as 2 µg/mL and the “Minocylcine Per Cell” value [3] is reported as 5.5E−05 femtomoles cell^−1. The “% Viability” value [4] was 75.74% and the “Potentiate Ciprofloxacin A. baumannii” value [5] was “No”.
`CCOC(=O)/C=C/C(=O)Nc1ccc(S(=O)(=O)Nc2nccs2)cc1` [ST026450] was tested, and the “Log-reduction Colony Forming Units (ml^−1)” value [2] was 5.37 log, the MEC [2] was 32 µg/mL and the “Minocylcine Per Cell” value [3] was 2.35E−06 femtomoles cell^−1. For the same compound, the “% Viability” value ([4]; human, 48 h, 4 ×MEC) was 100% and the “Potentiate Ciprofloxacin A. baumannii” value [5] was “No”.
`CN(C)[C@@H]1C(O)=C(C(N)=O)C(=O)[C@@]2(O)C(O)=C3C(=O)c4c(O)cccc4[C@@](C)(O)[C@H]3C[C@@H]12` [tetracycline] was tested, and the “cell viability, LB grown” value ([1]; 4-16 μg ml^−1 tetracycline, LB) was < 1×10^1 colony forming units.
For `Cc1ccc(C2N(Cc3ccccc3)CCCN2Cc2ccccc2)o1` [ST048001], the “Log-reduction Colony Forming Units (ml^−1)” value [2] was 7.06 log, the MEC [2] was 32 µg/mL and the “Minocylcine Per Cell” value [3] was 1.99E−04 femtomoles cell^−1. The “% Viability” value [4] was 82.72% and the “Potentiate Ciprofloxacin A. baumannii” value [5] was “No”.
